Assays:
Assay in all cases: relative viability (nuclei count vs DMSO), 5 days (fraction); higher = more cells survive
CUDC-101 + Pictilisib = compound: C#Cc1cccc(Nc2ncnc3cc(OC)c(OCCCCCCC(=O)NO)cc23)c1 [CUDC-101] + CS(=O)(=O)N1CCN(Cc2cc3nc(-c4cccc5[nH]ncc45)nc(N4CCOCC4)c3s2)CC1 [Pictilisib] (partner 1 µM)
How it was run: (§1)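 Lung cancer cell lines were pin-tool dosed in 1536-well plates on the day after seeding, with either a lone drug or a fixed anchor-drug dose plus five library-drug doses (not always all listed) in √10 steps. Nuclei were counted on 4× images after 5 days. Relative viability is the ratio of treated-well to vehicle-well nuclei counts, with each value a median of duplicate plates.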

CUDC-101 + Olaparib = compound: C#Cc1cccc(Nc2ncnc3cc(OC)c(OCCCCCCC(=O)NO)cc23)c1 [CUDC-101] + O=C(c1cc(Cc2n[nH]c(=O)c3ccccc23)ccc1F)N1CCN(C(=O)C2CC2)CC1 [Olaparib] (partner 8 µM)
How it was run: as §1

[1] = compound: C1=CC=C2C(=C1)N=C(S2)C(C#N)C3=NC(=NC=C3)NCCC4=CN=CC=C4 + O=C(CCCCCCC(=O)Nc1ccccc1)NO [Vorinostat] (partner 1 µM)
How it was run: as §1

NVP-TAE684 + Dasatinib = compound: COc1cc(N2CCC(N3CCN(C)CC3)CC2)ccc1Nc1ncc(Cl)c(Nc2ccccc2S(=O)(=O)C(C)C)n1 [NVP-TAE684] + Cc1nc(Nc2ncc(C(=O)Nc3c(C)cccc3Cl)s2)cc(N2CCN(CCO)CC2)n1 [Dasatinib] (partner 0.075 µM)
How it was run: as §1

| Cell Line | relative viability (CUDC-101 + Pictilisib; first compound 0.01 µM) | relative viability (CUDC-101 + Pictilisib; first compound 0.03162 µM) | relative viability (CUDC-101 + Pictilisib; first compound 0.1 µM) | relative viability (CUDC-101 + Pictilisib; first compound 0.3162 µM) | relative viability (CUDC-101 + Pictilisib; first compound 1 µM) | relative viability (CUDC-101 + Olaparib; first compound 0.01 µM) | relative viability (CUDC-101 + Olaparib; first compound 0.03162 µM) | relative viability (CUDC-101 + Olaparib; first compound 0.1 µM) | relative viability (CUDC-101 + Olaparib; first compound 0.3162 µM) | relative viability (CUDC-101 + Olaparib; first compound 1 µM) | relative viability ([1]; first compound 0.005 µM) | relative viability ([1]; first compound 0.01581 µM) | relative viability ([1]; first compound 0.05 µM) | relative viability ([1]; first compound 0.1581 µM) | relative viability ([1]; first compound 0.5 µM) | relative viability (NVP-TAE684 + Dasatinib; first compound 0.2 µM) | relative viability (NVP-TAE684 + Dasatinib; first compound 0.6325 µM) | relative viability (NVP-TAE684 + Dasatinib; first compound 2 µM) |
| --- | --- | --- | --- | --- | --- | --- | --- | --- | --- | --- | --- | --- | --- | --- | --- | --- | --- | --- |
| EMC-BAC-2 | 0.531 | 0.61 | 0.606 | 0.557 | 0.351 | 0.493 | 0.485 | 0.485 | 0.532 | 0.376 | 0.491 | 0.299 | 0.48 | 0.476 | 0.411 | 0.291 | 0.292 | 0.199 |
| NCI-H1437 | 0.4 | 0.44 | 0.46 | 0.375 | 0.149 | 0.676 | 0.649 | 0.642 | 0.605 | 0.537 | 0.896 | 0.871 | 0.813 | 0.824 | 0.755 | 0.363 | 0.272 | 0.128 |
| NCI-H1944 | 0.319 | 0.311 | 0.32 | 0.324 | 0.298 | 0.4 | 0.349 | 0.353 | 0.333 | 0.235 | 0.638 | 0.521 | 0.537 | 0.558 | 0.52 | 0.212 | 0.202 | 0.161 |
| NCI-H838 | 0.516 | 0.508 | 0.683 | 0.628 | 0.397 | 0.802 | 0.784 | 0.807 | 0.649 | 0.489 | 0.751 | 0.747 | 0.661 | 0.707 | 0.681 | 0.295 | 0.23 | 0.238 |
| HCC-827 | 1.07 | 0.53 | 0.368 | 0.287 | 0.262 | 0.718 | 0.302 | 0.157 | 0.221 | 0.123 | 0.675 | 0.931 | 0.838 | 1.07 | 0.922 | 0.262 | 0.241 | 0.124 |
| NCI-H2342 | – | – | – | – | – | 0.425 | 0.487 | 0.44 | 0.513 | 0.432 | 0.621 | 0.811 | 0.737 | 0.776 | 0.756 | 0.297 | 0.277 | 0.292 |
| LOU-NH91 | 0.578 | 0.523 | 0.564 | 0.473 | 0.433 | 0.906 | 0.779 | 0.76 | 0.754 | 0.624 | 0.907 | 0.826 | 0.769 | 1.03 | 0.837 | 0.544 | 0.453 | 0.231 |
| NCI-H3122 | 0.539 | 0.57 | 0.692 | 0.73 | 0.54 | 0.61 | 0.647 | 0.625 | 0.598 | 0.558 | 0.923 | 1.34 | 0.97 | 1.05 | 1.1 | 0.239 | 0.119 | 0.0896 |
| NCI-H1563 | 0.652 | 0.607 | 0.709 | 0.667 | 0.509 | – | – | – | – | – | – | – | – | – | – | 0.443 | 0.423 | 0.382 |
| NCI-H1734 | 0.499 | 0.488 | 0.452 | 0.437 | 0.285 | 0.663 | 0.606 | 0.59 | 0.697 | 0.499 | 0.7 | 0.785 | 0.758 | 1.06 | 0.78 | 0.47 | 0.362 | 0.194 |
| EPLC-272H | 0.449 | 0.434 | 0.275 | 0.244 | 0.18 | 0.885 | 0.703 | 0.596 | 0.448 | 0.365 | – | 0.519 | 0.451 | 0.395 | 0.178 | 0.181 | 0.186 | 0.0612 |
| RERF-LC-KJ | 0.465 | 0.518 | 0.511 | 0.485 | 0.376 | 0.939 | 0.917 | 0.92 | 0.818 | 0.699 | 0.603 | 0.623 | 0.609 | 0.7 | 0.578 | 0.667 | 0.596 | 0.327 |
| EBC-1 | 0.43 | 0.325 | 0.328 | 0.159 | 0.0697 | 0.744 | 0.674 | 0.683 | 0.666 | 0.26 | – | – | – | – | – | – | – | – |
| HARA | 0.684 | 0.475 | 0.293 | 0.215 | 0.157 | 1 | 0.844 | – | 0.418 | 0.154 | 0.663 | 0.718 | 0.559 | 0.59 | 0.614 | 0.24 | 0.172 | 0.141 |
| NCI-H1651 | 0.55 | 0.595 | 0.689 | 0.605 | 0.328 | 0.194 | 0.209 | 0.192 | 0.2 | 0.182 | 0.555 | 0.538 | 0.572 | 0.609 | 0.559 | 0.326 | 0.321 | 0.146 |
| NCI-H2405 | 0.462 | 0.419 | 0.642 | 0.624 | 0.336 | 0.901 | 0.844 | 0.861 | 0.908 | 0.817 | 0.82 | 0.938 | 0.953 | 1.15 | 0.727 | 0.226 | 0.178 | 0.154 |
| NCI-H596 | 0.403 | 0.382 | 0.422 | 0.384 | 0.68 | 0.616 | 0.597 | 0.718 | 0.689 | 0.67 | 0.463 | 0.446 | 0.716 | 0.654 | 0.676 | 0.629 | 0.397 | 0.286 |
| NCI-H2009 | 0.813 | 0.824 | 0.963 | 0.917 | 0.699 | 0.698 | 0.694 | 0.697 | 0.615 | 0.646 | 0.727 | 0.677 | 0.729 | 0.735 | 0.738 | 0.207 | 0.157 | 0.172 |
| NCI-H2170 | 0.317 | 0.297 | 0.289 | 0.275 | 0.169 | 0.643 | 0.625 | 0.576 | 0.583 | 0.386 | 0.756 | 0.86 | 0.777 | 0.887 | 0.877 | 0.588 | 0.477 | 0.368 |

From the supplement of paper PMC10307832
